Counter-ions that a name gives are not always drawn. Like-named read-outs stand apart in the source and are kept apart here.
How the values were obtained:
[1] = molecular target: p70S6K (h) (Homo sapiens, UniProt P23443); assay: Determination of p70S6 inhibitory activity (radiometric kinase assay); format: biochemical; settings: read-out: (a) p70S6K1 IC50
Experimental: The ability of compounds of the invention to inhibit P70S6 kinase was determined using the protocol below.
20 mM MOPS, 1 mM EDTA, 0.01% Brij-35, 5% Glycerol, 0.1% b-mercaptoethanol, 1 mg/mL BSA
In a final reaction volume of 25 μL, p70S6K (h) (5-10 mU) is incubated with 8 mM MOPS pH 7.0, 0.2 mM EDTA, 100 μM KKRNRTLTV, 10 mM Mg acetate and [γ-33P-ATP] (specific activity approx. 500 cpm/pmol, concentration as required). The reaction is initiated by the addition of the MgATP mix. After incubation for 40 minutes at room temperature, the reaction is stopped by the addition of 5 μL of a 3% phosphoric acid solution. 10 μL of the reaction mixture is then spotted onto a P30 filtermat and washed three times for 5 minutes in 75 mM phosphoric acid and once in methanol prior to drying and scintillation counting.

[2] = test system: phosphorylation of S6 Ser235/236 in MCF-7 cells; assay: MCF-7 pS6 ELISA (phosphorylation of S6 Ser235/236); format: cell-based; settings: Homo sapiens, MCF7; for IC50: S6 Ser235/236, 1% FBS, 2 h, read-out: (b) MCF-7 pS6 ELISA IC50
Experimental: The following assay provides IC50 values for inhibition of P70S6K activity in a whole cell assay by determining effects on the phosphorylation of S6^Ser235/236 in MCF-7 cells by ELISA.
The following protocol was used: • 1) MCF-7 cells were seeded in 96-well plates at a density of 7000 cells per well and allowed to adhere for 6 h in media containing 10% FBS. • 2) The full serum media was replaced and cells incubated overnight in media containing 1% FBS, prior to addition of test compounds. • 3) Test compounds were prepared from 10 mM DMSO stocks to give final concentration ranges as indicated on graphs. DMSO was constant at a final concentration of 1%. • 4) Test compounds were incubated with cells in duplicate for 2 h at 37° C/5% CO2 in a humidified atmosphere. • 5) The media was removed and cells were lysed by freeze-thawing in cell lysis buffer. • 6) Detection of phosphorylated S6Ser235/236 was then carried out using a PathScan ELISA kit (Cell Signaling Technology #7205). • 7) Lysates were diluted 1:1 with sample diluent before being applied to wells coated with an antibody against phosphorylated-S6 protein. • 8) The ELISA was then performed as stated in the manufacturers' instructions. • 9) The raw data were normalised to control values and analysed using a 4-parameter logistic equation in GraphPad Prism.

[3] = test system: MCF-7 cells; assay: MCF-7 proliferation assay (Alamar blue, 72 h); format: cell-based; settings: Homo sapiens, MCF7, 72 h; read-out: (c) MCF-7 proliferation IC50
Experimental: The following assay was used to determine the ability of test compounds to inhibit cell growth.
The following protocol was used: • 1) MCF-7 cells were seeded in 96-well plates at 5000 cells per well and allowed to adhere overnight prior to addition of compound or vehicle control. • 2) Test compounds were prepared from 10 mM DMSO stocks to give a final concentration range of 100 μM, 30 μM, 10 μM, 3 μM, 1 μM, 0.3 μM, 0.1 μM, 0.03 μM, 0.01 μM and vehicle control. The DMSO content was constant at 1%. • 3) Test compounds were incubated with the cells for 72 h at 37° C. 5% CO2 in a humidified atmosphere. • 4) Alamar blue 10% (v/v) was then added and incubated for a further 6 h, and fluorescent product detected using the BMG FLUOstar plate reader. • 5) Data were analysed using a 4-parameter logistic equation in GraphPad Prism.

[4] = Brain and plasma concentrations in an in vivo cassette mouse model; parameters: species or system male CD-1 mice; settings: male, PO cassette, 2.5 mg/kg per compound; for Kp at 3 h: read-out: (d) Brain: Plasma ratio at 3 hours
Experimental: The compounds of this invention were evaluated in an in vivo cassette mouse model to determine brain and plasma concentrations following oral dosing. This is an industry-standard and recognised means to assess brain penetration of small molecules (for recent literature article, refer to In vitro permeability analysis, pharmacokinetic and brain distribution study in mice of imperatorin, isoimperatorin and cnidilin in Radix Angelicae Dahuricae, Fitoterapia, Volume 85, March 2013 , Pages 144-153). It is also recognised that higher brain concentrations (and higher ratios of brain: plasma concentration) lead to greater exposure in the brain—this is clearly advantageous if the brain is the site of action.
For a single cassette study, male CD-1 mice were used (n=3 per timepoint, two timepoints: 1.0 hr and 3.0 hr).
5 compounds were dosed PO per cassette (dose level 2.5 mg/kg per compound, dose conc. 0.25 mg/ml, dose volume 10.0 ml/kg).
Formulation used to solubilize compounds: 10% DMSO/90% hydroxypropyl-β-cyclodextrin (20% w/v aqueous)
Sampling was terminal and plasma and brain matrices were generated. To prepare plasma samples, protein was precipitated using acetonitrile. To prepare brain samples, homogenisation and protein precipitation was performed with acetonitrile. Samples were analysed using HPLC-TOF MS using electrospray ionisation.

[5] = test system: phosphorylation of S6 at Serine residues 240 and 244 in MCF7 cells; assay: MCF7 pS6 ELISA variant (pS240/244, 0% FBS); format: cell-based; settings: Homo sapiens, S6 Serine 240 and 244 detected, read-out: (b) MCF-7 pS6 ELISA IC50 (pS240/244 variant)
[6] = CD-1, brain, read-out: (d) Brain conc. at 3 hours
[7] = CD-1, plasma, read-out: (d) Plasma conc. at 3 hours

p70S6K (h), sequence (P23443 whole entry): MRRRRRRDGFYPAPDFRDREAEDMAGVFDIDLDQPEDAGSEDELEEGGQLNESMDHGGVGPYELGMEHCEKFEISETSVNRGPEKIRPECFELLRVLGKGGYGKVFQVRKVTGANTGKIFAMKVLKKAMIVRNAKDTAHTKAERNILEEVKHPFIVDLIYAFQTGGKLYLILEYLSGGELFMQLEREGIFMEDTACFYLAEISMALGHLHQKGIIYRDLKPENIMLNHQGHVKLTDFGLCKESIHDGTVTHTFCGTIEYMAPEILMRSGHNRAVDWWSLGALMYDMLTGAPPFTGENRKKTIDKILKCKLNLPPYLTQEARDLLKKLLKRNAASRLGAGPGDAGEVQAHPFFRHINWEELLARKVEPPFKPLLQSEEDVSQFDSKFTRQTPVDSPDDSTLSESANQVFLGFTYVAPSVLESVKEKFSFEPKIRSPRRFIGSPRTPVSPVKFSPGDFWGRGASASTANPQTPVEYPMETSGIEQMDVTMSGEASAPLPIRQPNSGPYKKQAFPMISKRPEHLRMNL

SMILES | IC50 [1] [nM] | IC50 [2] [nM] | IC50 [3] [nM] | concentration at 3 h [4, 6] [nM] | Kp at 3 h ([4]; CD-1, brain) | concentration at 3 h [4, 7] [nM] | inhibition at 0.3 µM ([2]; at 0.3 uM, read-out: (b) MCF-7 pS6 ELISA inhibition) [%] | IC50 [5] [nM]
CN(Cc1ccccc1)c1cnc2cc(-c3cn[nH]c3)ccc2n1 [Example 1] | 4 | 3000 | 12200 | 3650 | 3.8 | 970 |  | 
Clc1cccc(CNc2cnc3cc(-c4cn[nH]c4)ccc3n2)c1 [Example 2] | 25 | 400 | 15000 | 1500 | 1.2 | 1230 |  | 
Fc1ccc(CNc2cnc3cc(-c4cn[nH]c4)ccc3n2)cc1 [Example 3] | 26 | 3200 | 5300 | 590 | 1.1 | 520 |  | 
COc1cccc(CNc2cnc3cc(-c4cn[nH]c4)ccc3n2)c1 [Example 4] | 30 | 400 | 2300 | 1080 | 0.6 | 1730 |  | 
CN(Cc1ccc(F)cc1)c1cnc2cc(-c3cn[nH]c3)ccc2n1 [Example 5] | 12 | 3200 | 33000 | 2480 | 3.3 | 760 |  | 
CCN(Cc1ccccc1)c1cnc2cc(-c3cn[nH]c3)ccc2n1 [Example 6] | 33 |  | 28000 | 2380 | 4.3 | 550 |  | 
CN(Cc1cccc(F)c1)c1cnc2cc(-c3cn[nH]c3)ccc2n1 [Example 7] | 9 | 900 | 7000 | 2880 | 3.5 | 830 |  | 
Fc1ccc(CNc2cnc3cc(-c4cn[nH]c4)ccc3n2)cc1F [Example 8] | 26 | 1400 | 24000 | 820 | 1.1 | 760 |  | 
C[C@@H](Nc1cnc2cc(-c3cn[nH]c3)ccc2n1)c1ccccc1 [Example 9] | 3 | 300 | 15000 | 2070 | 1.4 | 1510 |  | 
CN(Cc1ccccc1)c1nc2ccc(-c3cn[nH]c3)cc2[n+]([O-])n1 [Example 10] | 62 |  |  | 750 | 4.2 | 180 |  | 
CN(Cc1ccccc1)c1nnc2cc(-c3cn[nH]c3)ccc2n1 [Example 11] | 64 |  |  | 2620 | 7.5 | 350 |  | 
COc1cccc([C@@H](C)Nc2cnc3cc(-c4cn[nH]c4)ccc3n2)c1 [Example 12] | 7 | 800 | 8400 | 2400 | 0.5 | 5050 |  | 
C[C@H](c1ccccc1)N(C)c1cnc2cc(-c3cn[nH]c3)ccc2n1 [Example 13] | 5 | 1200 |  | 2960 | 4.2 | 700 |  | 
COc1cccc([C@@H](C)N(C)c2cnc3cc(-c4cn[nH]c4)ccc3n2)c1 [Example 14] | 9 | 900 | 9000 | 2650 | 3.3 | 790 |  | 
Cc1cccc([C@@H](C)Nc2cnc3cc(-c4cn[nH]c4)ccc3n2)c1 [Example 16] | 18 |  | 4200 | 3250 | 1 | 3340 | 57 | 
[O-][n+]1nc(NCc2ccccc2)nc2ccc(-c3cn[nH]c3)cc21 [Example 17] | 32 |  |  | 210 | 1.3 | 160 |  | 
C[C@@H](Nc1nc2ccc(-c3cn[nH]c3)cc2[n+]([O-])n1)c1ccccc1 [Example 18, 1-oxido-N-[(1R)-1-phenylethyl]-7-(1H-pyrazol-4-yl)-1,2,4-benzotriazin-1-ium-3-amine hydrochloride] | 12 |  |  | 990 | 1.8 | 560 |  | 5040
C[C@@H](Nc1nnc2cc(-c3cn[nH]c3)ccc2n1)c1ccccc1 [Example 19, N-[(1 R)-1-phenylethyl]-7-(1H-pyrazol-4-yl)-1,2,4-benzotriazin-3-amine hydrochloride] | 22 |  |  | 2330 | 2.9 | 810 |  | 4590

— patent US10144726B2, “Modulators of the p70S6 kinase for use in the treatment of brain disorders and triple-negative breast cancer” (SENTINEL ONCOLOGY LIMITED, priority 2015, dated 2018)
